Values quoted from earlier work, collected in patent publication US9149457B2, “Nutraceutical composition for PDE4 inhibition, enhanced dopamine metabolism and long term potentiation” (priority 2013, dated 2015).
Values belong to the molecule of their own block, whether it stands above or below them.

Assays:
acetylcholine = conditions: references 33-35
[1] = system: phosphodiesterase enzymes (PDE 1 through 5); conditions: references 24-27
[2] = references 46-47
[3] = references 7-13

Compound: CC(=O)O[C@H](CC(=O)[O-])C[N+](C)(C)C [Acetyl-L-carnitine, acetyl-L-carnitine]
levels of acetylcholine in the brain (acetylcholine): increase the levels

inhibition of phosphodiesterase enzymes that degrade 3',5'-cyclic nucleotides [1]: can inhibit
Compound: O=c1cc(-c2ccc(O)c(O)c2)oc2cc(O)cc(O)c12 [Luteolin, luteolin]

Compound: O=C(/C=C/C=C/c1ccc2c(c1)OCO2)N1CCCCC1 [Piperine, piperine]
bioavailability of resveratrol [2]: enhance the bioavailability of resveratrol

Compound: COc1ccc(C2CNC(=O)C2)cc1OC1CCCC1 (stereo not shown) [rolipram]
side effect [3]: emesis (vomiting) at low doses
